Experimental data reported in patent US8772509B2, “Indole compounds as positive allosteric modulators of the muscarinic receptor” (Vanderbilt University, priority 2010, dated 2014).

Target: T1, mAChR M1 (UniProt P08482)
T1 sequence (P08482 1-460): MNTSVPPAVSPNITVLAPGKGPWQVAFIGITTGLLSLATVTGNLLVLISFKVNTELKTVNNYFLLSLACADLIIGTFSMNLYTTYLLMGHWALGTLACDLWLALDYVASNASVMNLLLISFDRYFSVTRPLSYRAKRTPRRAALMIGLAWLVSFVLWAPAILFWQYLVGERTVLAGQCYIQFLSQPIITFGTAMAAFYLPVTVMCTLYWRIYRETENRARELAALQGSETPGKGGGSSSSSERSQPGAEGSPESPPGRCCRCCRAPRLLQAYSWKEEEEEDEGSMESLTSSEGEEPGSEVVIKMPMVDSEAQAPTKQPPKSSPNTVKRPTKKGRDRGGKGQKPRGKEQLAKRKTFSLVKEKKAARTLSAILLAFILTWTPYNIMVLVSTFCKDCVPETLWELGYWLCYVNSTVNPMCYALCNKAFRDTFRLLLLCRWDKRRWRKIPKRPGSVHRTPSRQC
Test: mAChR M1 cell-based functional assay (calcium mobilization, Fluo-4, FDSS)
Conditions: for EC50: positive allosteric modulation of EC20 acetylcholine response, CHO-K1 cells expressing mAChR M1, read-out: Potency (EC50); for Efficacy (% ACh maximum at 30 μM): maximal calcium flux response from curve fit or response at 30 μM compound, as % of the EC80 ACh response
Experimental: Chinese hamster ovary (CHO-K1) cells stably expressing rat (r)M1 were purchased from the American Type Culture Collection and cultured according to their indicated protocol. […] To make stable rM2, hM2, rM3, hM4, and rM4 cell lines for use in calcium mobilization assays, these cells also were stably transfected with a chimeric G-protein (Gqi5) (provided by B. R. Conklin, University of California, San Francisco) using Lipofectamine 2000. rM1, hM1, rM3, hM3, rM5, and hM5 cells were grown in Ham's F-12 medium containing 10% heat-inactivated fetal bovine serum (FBS), 20 mM HEPES, and 50 μg/mL G418 sulfate. rM2-Gqi5, hM2-Gqi5, and hM4-Gqi5 cells were grown in the same medium also containing 500 μg/mL Hygromycin B. Stable rM4-Gqi5 cells were grown in DMEM containing 10% heat-inactivated FBS, 20 mM HEPES, 400 μg/mL G418 sulfate, and 500 μg/mL Hygromycin B.
For high throughput measurement of agonist-evoked increases in intracellular calcium, CHO-K1 cells stably expressing muscarinic receptors were plated in growth medium lacking G418 and hygromycin at 15,000 cells/20 μL/well in Greiner 384-well black-walled, tissue culture (TC)-treated, clear-bottom plates (VWR). Cells were incubated overnight at 37° C. and 5% CO2. […] Compound master plates were formatted in an 11 point CRC format (1:3 dilutions) in 100% DMSO with a starting concentration of 10 mM using the BRAVO liquid handler (Agilent). Test compound CRCs were then transferred to daughter plates (240 nL) using the Echo acoustic plate reformatter (Labcyte, Sunnyvale, Calif.) and then diluted into assay buffer (40 μL) to a 2× stock using a Thermo Fisher Combi (Thermo Fisher Scientific, Waltham, Mass.).
Calcium flux was measured using the Functional Drug Screening System (FDSS) 6000 (Hamamatsu Corporation, Tokyo, Japan) as an increase in the fluorescent static ratio. Compounds were applied to cells (20 μL, 2×) using the automated system of the FDSS 6000 at 4 s into the 300 s protocol and the data were collected at 1 Hz. […] Agonist activity was analyzed as a concentration-dependent increase in calcium mobilization upon compound addition. Positive allosteric modulator activity was analyzed as a concentration-dependent increase in the EC20 acetylcholine response. Antagonist activity was analyzed as a concentration-dependent decrease in the EC80 acetylcholine response. Concentration-response curves were generated using a four-parameter logistical equation in XLfit curve fitting software (IDBS, Bridgewater, N.J.) for Excel (Microsoft, Redmond, Wash.) or Prism (GraphPad Software, Inc., San Diego, Calif.).
The calcium mobilization assay was also used to determine “efficacy”. In the context of the assays carried out for the data in Table I, “efficacy” (% ACh at 30 μM) is defined as the maximal response in the calcium flux as determined by the sigmoidal curve fit of the concentration response curve, or in the absence of an acceptable curve fit, the response recorded at 30 μM test compound, stated as a percentage of the response elicited by a concentration of Ach that induces approximately 80% of a maximal (i.e. saturating) ACh response.

Row | EC50 | Efficacy (% ACh maximum at 30 μM) | SMILES
1 | > 10 µM |  | Cc1cc(NC(=O)CSc2c[nH]c3ccccc23)no1 [compound 41, 2-(1H-indol-3-ylsulfanyl)-N-(5-methyl-1,2-oxazol-3-yl)acetamide]
2 | > 10 µM |  | Cc1cc(NC(=O)CS(=O)(=O)c2cn(Cc3cccc(-c4cnn(CC(C)C)c4)c3)c3ccccc23)no1 [compound 65, N-(5-methyl-1,2-oxazol-3-yl)-2-[1-({3-[1-(2-methylpropyl)-1H-pyrazol-4-yl]phenyl}methyl)-1H-indole-3-sulfonyl]acetamide]
3 | > 10 µM |  | Cc1cc(NC(=O)C(C)S(=O)(=O)c2cn(Cc3cc(Br)cc(Br)c3)c3ccccc23)no1 (centres unmarked) [compound 73, 2-{1-[(3,5-dibromophenyl)methyl]-1H-indole-3-sulfonyl}-N-(5-methyl-1,2-oxazol-3-yl)propanamide]
4 | > 10 µM |  | Cc1cc(NC(=O)C(Cc2ccc(F)cc2F)S(=O)(=O)c2cn(Cc3ccc(F)cc3F)c3ccccc23)no1 (centres unmarked) [compound 71, 3-(2,4-difluorophenyl)-2-{1-[(2,4-difluorophenyl)methyl]-1H-indole-3-sulfonyl}-N-(5-methyl-1,2-oxazol-3-yl)propanamide]
5 | > 10 µM |  | Cc1cc(NC(=O)CS(=O)(=O)c2cn(Cc3ccc(C(F)(F)F)cc3)c3ccccc23)no1 [compound 53, N-(5-methyl-1,2-oxazol-3-yl)-2-(1-{[4-(trifluoromethyl)phenyl]methyl}-1H-indole-3-sulfonyl)acetamide]
6 | > 10 µM |  | Cc1cc(NC(=O)CS(=O)(=O)c2cn(Cc3cccc(C(F)(F)F)c3)c3ccccc23)no1 [compound 54, N-(5-methyl-1,2-oxazol-3-yl)-2-(1-{[3-(trifluoromethyl)phenyl]methyl}-1H-indole-3-sulfonyl)acetamide]
7 | 4.4 µM | 103% | Cc1cc(NC(=O)CS(=O)(=O)c2cn(Cc3cccc(-c4cc[nH]n4)c3F)c3ccccc23)no1 [compound 23, 2-((1-(2-fluoro-3-(1H-pyrazol-3-yl)benzyl)-1H-indol-3-yl)sulfonyl)-N-(5-methylisoxazol-3-yl)acetamide]
8 | 4.4 µM | 38% | O=C(CS(=O)(=O)c1cn(Cc2cccc(-c3cccnc3F)c2)c2cc(F)cc(F)c12)Nc1ccccn1 [compound 24, 2-((4,6-difluoro-1-(3-(2-fluoropyridin-3-yl)benzyl)-1H-indol-3-yl)sulfonyl)-N-(pyridin-2-yl)acetamide]
9 | > 10 µM |  | Cc1cc(NC(=O)CS(=O)(=O)c2cn(Cc3ccc(OC(F)(F)F)cc3)c3ccccc23)no1 [compound 57, N-(5-methyl-1,2-oxazol-3-yl)-2-(1-{[4-(trifluoromethoxy)phenyl]methyl}-1H-indole-3-sulfonyl)acetamide]
10 | > 10 µM | 34% | O=C(CS(=O)(=O)c1cn(Cc2cccc(Br)c2)c2cc(F)cc(F)c12)NCc1ccccn1 [compound 39, 2-((1-(3-bromobenzyl)-4,6-difluoro-1H-indol-3-yl)sulfonyl)-N-(pyridin-2-ylmethyl)acetamide]
11 | > 10 µM |  | Cc1cc(NC(=O)CS(=O)(=O)c2cn(Cc3ccc(F)c(Cl)c3)c3ccccc23)no1 [compound 52, 2-{1-[(3-chloro-4-fluorophenyl)methyl]-1H-indole-3-sulfonyl}-N-(5-methyl-1,2-oxazol-3-yl)acetamide]
12 | > 10 µM |  | Cc1cc(NC(=O)CS(=O)(=O)c2cn(Cc3cccc(Br)c3F)c3ccccc23)no1 [compound 62, 2-{1-[(3-bromo-2-fluorophenyl)methyl]-1H-indole-3-sulfonyl}-N-(5-methyl-1,2-oxazol-3-yl)acetamide]
13 | > 10 µM |  | Cc1cc(NC(=O)CS(=O)(=O)c2cn(Cc3ccc(Cl)cc3)c3ccccc23)no1 [compound 48, 2-{1-[(4-chlorophenyl)methyl]-1H-indole-3-sulfonyl}-N-(5-methyl-1,2-oxazol-3-yl)acetamide]
14 | 2.75 µM | 95% | Cc1cc(NC(=O)CS(=O)(=O)c2cn(Cc3cccc(-c4cnn(C)c4)c3)c3ccccc23)no1 [compound 12, 2-((1-(3-(1-methyl-1H-pyrazol-4-yl)benzyl)-1H-indol-3-yl)sulfonyl)-N-(5-methylisoxazol-3-yl)acetamide]
15 | 2.5 µM | 44% | O=C(CS(=O)(=O)c1cn(Cc2cccc(Br)c2)c2cc(F)cc(F)c12)Nc1nc2ccccc2o1 [compound 9, N-(benzo[d]oxazol-2-yl)-2-((1-(3-bromobenzyl)-4,6-difluoro-1H-indol-3-yl)sulfonyl)acetamide]
16 | > 10 µM | 43% | O=C(CS(=O)(=O)c1cn(Cc2cccc(Br)c2)c2cc(F)cc(F)c12)NC1COC1 [compound 34, 2-((1-(3-bromobenzyl)-4,6-difluoro-1H-indol-3-yl)sulfonyl)-N-(oxetan-3-yl)acetamide]
17 | > 10 µM |  | Cc1cc(NC(=O)CS(=O)(=O)c2cn(Cc3ccc(F)c(Br)c3)c3ccccc23)no1 [compound 61, 2-{1-[(3-bromo-4-fluorophenyl)methyl]-1H-indole-3-sulfonyl}-N-(5-methyl-1,2-oxazol-3-yl)acetamide]
18 | 3.5 µM | 36% | O=C(CS(=O)(=O)c1cn(Cc2cccc(-c3ccnc(F)c3)c2)c2cc(F)cc(F)c12)Nc1ccccn1 [compound 20, 2-((4,6-difluoro-1-(3-(2-fluoropyridin-4-yl)benzyl)-1H-indol-3-yl)sulfonyl)-N-(pyridin-2-yl)acetamide]
19 | > 10 µM | 48% | O=C(CS(=O)(=O)c1cn(Cc2cccc(Br)c2)c2cc(F)cc(F)c12)Nc1cncnc1 [compound 37, 2-((1-(3-bromobenzyl)-4,6-difluoro-1H-indol-3-yl)sulfonyl)-N-(pyrimidin-5-yl)acetamide]
20 | > 10 µM |  | Cc1cc(NC(=O)CS(=O)(=O)c2cn(Cc3ccc(F)c(-c4cc[nH]n4)c3)c3ccccc23)no1 [compound 58, 2-(1-{[4-fluoro-3-(1H-pyrazol-3-yl)phenyl]methyl}-1H-indole-3-sulfonyl)-N-(5-methyl-1,2-oxazol-3-yl)acetamide]
21 | 4.6 µM | 57% | O=C(CS(=O)(=O)c1cn(Cc2cccc(-c3cccnc3)c2)c2cc(F)cc(F)c12)Nc1ccccn1 [compound 25, 2-((4,6-difluoro-1-(3-(pyridin-3-yl)benzyl)-1H-indol-3-yl)sulfonyl)-N-(pyridin-2-yl)acetamide]
22 | 2.7 µM | 43% | O=C(CS(=O)(=O)c1cn(Cc2cccc(-c3cccnc3Cl)c2)c2cc(F)cc(F)c12)Nc1ccccn1 [compound 11, 2-((1-(3-(2-chloropyridin-3-yl)benzyl)-4,6-difluoro-1H-indol-3-yl)sulfonyl)-N-(pyridin-2-yl)acetamide]
23 | 3.7 µM | 72% | O=C(CS(=O)(=O)c1cn(Cc2cccc(Br)c2)c2cc(F)cc(F)c12)Nc1noc2ccccc12 [compound 21, N-(benzo[d]isoxazol-3-yl)-2-((1-(3-bromobenzyl)-4,6-difluoro-1H-indol-3-yl)sulfonyl)acetamide]
24 | > 10 µM |  | Cc1cc(NC(=O)CS(=O)(=O)c2cn(Cc3ccc(F)cc3F)c3ccccc23)no1 [compound 49, 2-{1-[(2,4-difluorophenyl)methyl]-1H-indole-3-sulfonyl}-N-(5-methyl-1,2-oxazol-3-yl)acetamide]
